Assay results as given in PubChem BioAssay (NCI).
Values joined by “and” are separate entries in the source; they are usually repeats but may differ in a detail not shown here. Equal entries are not always repeated.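 How tested: cells in 96-well plates exposed to compound for 48 hours at five concentrations. GI50 marks 50% less growth. TGI: total growth inhibition.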

Columns and labels:
Assay in all cases: NCI anticancer screen, dose series, 48 h
HCT-116 colon = tested on: HCT-116 colon
NCI-H23 lung = tested on: NCI-H23 lung
HCT-15 colon = tested on: HCT-15 colon
K-562 leukemia = tested on: K-562 leukemia
HS 578T breast = tested on: HS 578T breast
MDA-MB-435 = tested on: MDA-MB-435
U251 CNS = tested on: U251 CNS
CCRF-CEM leukemia = tested on: CCRF-CEM leukemia
COLO 205 colon = tested on: COLO 205 colon
SF-539 CNS = tested on: SF-539 CNS

## C=C1C(=O)O[C@H]2[C@H]1CC/C(COC(=O)OCCCCCOC(=O)OC/C1=C/CC[C@@]3(C)O[C@H]3[C@H]3OC(=O)C(=C)[C@@H]3CC1)=C\CC[C@@]1(C)O[C@@H]21
HCT-116 colon
  GI50: 0.174 µM
  TGI: 0.5 µM
NCI-H23 lung
  GI50: 0.674 µM
  TGI: 2.37 µM
HCT-15 colon
  GI50: 0.252 µM
  TGI: 0.822 µM
K-562 leukemia
  GI50: 0.267 µM
  TGI: 1.08 µM
HS 578T breast
  GI50: 2.48 µM
  TGI: 19.8 µM
MDA-MB-435
  GI50: 0.527 µM
  TGI: 2.13 µM
U251 CNS
  GI50: 1.31 µM
  TGI: 2.82 µM
CCRF-CEM leukemia
  GI50: 0.321 µM
  TGI: 1.14 µM
COLO 205 colon
  GI50: 0.199 µM
  TGI: 0.438 µM
SF-539 CNS
  GI50: 0.61 µM
  TGI: 2.04 µM

## O=C1C(=O)c2ccc(Br)cc2-c2cc(Br)ccc21
HCT-116 colon
  GI50: 0.587 µM
  TGI: 1.43 µM
NCI-H23 lung
  GI50: 2.56 µM
  TGI: 13.2 µM
HCT-15 colon
  GI50: 1.28 µM
  TGI: > 35 µM
K-562 leukemia
  GI50: 0.799 µM
  TGI: > 29.8 µM
HS 578T breast
  GI50: 8.27 µM
  TGI: > 78.9 µM
MDA-MB-435
  GI50: 1.76 µM
  TGI: 4.07 µM
U251 CNS
  GI50: 1.42 µM
  TGI: 9.04 µM
CCRF-CEM leukemia
  GI50: 0.553 µM
  TGI: 1.83 µM
COLO 205 colon
  GI50: > 100 µM
  TGI: > 100 µM
SF-539 CNS
  GI50: 8.43 µM
  TGI: 26.3 µM

## CCN(CC)c1ccc(NC(C(=O)c2ccccc2)c2ccccc2)cc1 (stereo unspecified)
HCT-116 colon
  GI50: 2.58 µM
  TGI: 6.6 µM
NCI-H23 lung
  GI50: 2.15 µM
  TGI: 4.67 µM
HCT-15 colon
  GI50: 1.96 µM
  TGI: 5.31 µM
K-562 leukemia
  GI50: 3.27 µM
  TGI: 55.1 µM
HS 578T breast
  GI50: 3.41 µM
  TGI: 47.1 µM
MDA-MB-435
  GI50: 2.25 µM
  TGI: 6.05 µM
U251 CNS
  GI50: 2.72 µM
  TGI: 10 µM
CCRF-CEM leukemia
  GI50: 2.29 µM
  TGI: 13.5 µM
COLO 205 colon
  GI50: 3.41 µM
  TGI: 11.9 µM
SF-539 CNS
  GI50: 2.11 µM
  TGI: 4.98 µM

## Cc1cc(N(CCCl)CCCl)ccc1C=Nc1cccnc1
HCT-116 colon
  GI50: 22.7 µM
  TGI: > 100 µM
NCI-H23 lung
  GI50: 6.93 µM
  TGI: > 100 µM
HCT-15 colon
  GI50: 27.5 µM
  TGI: > 100 µM
K-562 leukemia
  GI50: 34.7 µM
  TGI: > 100 µM
HS 578T breast
  GI50: 37.7 µM
  TGI: > 100 µM
MDA-MB-435
  GI50: 37.8 µM
  TGI: > 100 µM
U251 CNS
  GI50: 18.5 µM
  TGI: > 100 µM
CCRF-CEM leukemia
  GI50: 6.75 µM
  TGI: > 100 µM
COLO 205 colon
  GI50: 15.1 µM
  TGI: > 70.8 µM
SF-539 CNS
  GI50: 4.81 µM
  TGI: > 100 µM

## COc1ccc2c(c1)C(=O)c1c-2c(NCCCN(C)C)nc2ccccc12
HCT-116 colon
  GI50: 1.25 µM
  TGI: 2.65 µM
NCI-H23 lung
  GI50: 2.78 µM
  TGI: 10 µM
HCT-15 colon
  GI50: 1.42 µM
  TGI: 3.2 µM
K-562 leukemia
  GI50: 3.69 µM
  TGI: 14.7 µM
HS 578T breast
  GI50: 3.7 µM
  TGI: 16 µM
MDA-MB-435
  GI50: 4.05 µM
  TGI: 15.4 µM
U251 CNS
  GI50: 1.98 µM
  TGI: 4.42 µM
CCRF-CEM leukemia
  GI50: 1.48 µM
  TGI: 3.47 µM
COLO 205 colon
  GI50: 5.23 µM
  TGI: 18.8 µM
SF-539 CNS
  GI50: 10.8 µM
  TGI: 24.6 µM

## Cc1c(Cl)cccc1NC(=O)CC1Sc2ccccc2NC1=O (stereo unspecified)
HCT-116 colon
  TGI: 46.2 µM and 31.4 µM
NCI-H23 lung
  TGI: 70 µM and > 100 µM
HCT-15 colon
  GI50: 8.53 µM and 41.9 µM
  TGI: > 100 µM
K-562 leukemia
  TGI: 99.7 µM and > 100 µM
HS 578T breast
  TGI: 25.3 µM
MDA-MB-435
  TGI: 9.79 µM
U251 CNS
  TGI: 34.9 µM and 33.6 µM
CCRF-CEM leukemia
  TGI: > 100 µM
COLO 205 colon
  TGI: > 100 µM
SF-539 CNS
  TGI: 45.1 µM and 36.2 µM

## O=S(=O)(c1cccc(C(F)(F)F)c1)N1c2ccccc2-n2cccc2C1c1cccnc1 (stereo unspecified)
HCT-116 colon
  TGI: > 52 µM
NCI-H23 lung
  TGI: > 100 µM
HCT-15 colon
  TGI: > 91.4 µM
K-562 leukemia
  TGI: > 86.4 µM
HS 578T breast
  TGI: > 76.3 µM
MDA-MB-435
  TGI: > 42.2 µM
U251 CNS
  TGI: > 53.1 µM
CCRF-CEM leukemia
  TGI: > 51.6 µM
COLO 205 colon
  TGI: > 54.6 µM
SF-539 CNS
  TGI: > 60.9 µM

## CS(=O)(=O)c1nccc(-c2c(-c3cccc(OCc4ccc(F)cc4)c3)nc3sccn23)n1
HCT-116 colon
  GI50: 5.65 µM
  TGI: > 100 µM
NCI-H23 lung
  GI50: 11.7 µM
  TGI: > 100 µM
HCT-15 colon
  GI50: 10.9 µM
  TGI: > 100 µM
K-562 leukemia
  GI50: 6.67 µM
  TGI: > 100 µM
HS 578T breast
  GI50: 14.3 µM
  TGI: > 100 µM
MDA-MB-435
  GI50: 30.3 µM
  TGI: > 100 µM
U251 CNS
  GI50: 33.1 µM
  TGI: > 100 µM
CCRF-CEM leukemia
  GI50: 8.73 µM
  TGI: > 100 µM
COLO 205 colon
  GI50: 45 µM
  TGI: > 100 µM
SF-539 CNS
  GI50: > 94 µM
  TGI: > 100 µM

## CC1(C)CCC(S(=O)(=O)c2ccc3c(c2)/C(=N\O)c2cc(S(=O)(=O)N4CCC(O)(c5cccc(C(F)(F)F)c5)CC4)ccc2-3)CC1
HCT-116 colon
  GI50: 0.0163 µM
  TGI: 0.0327 µM
NCI-H23 lung
  GI50: 0.118 µM
  TGI: 1.37 µM
HCT-15 colon
  GI50: 0.0694 µM
  TGI: 4.52 µM
K-562 leukemia
  GI50: 0.0219 µM
  TGI: 0.0492 µM
HS 578T breast
  GI50: 0.0287 µM
  TGI: 0.0749 µM
MDA-MB-435
  GI50: 0.0283 µM
  TGI: 0.122 µM
U251 CNS
  GI50: 0.02 µM
  TGI: 0.0384 µM
CCRF-CEM leukemia
  GI50: 0.0291 µM
  TGI: 0.0906 µM
COLO 205 colon
  GI50: 0.0208 µM
  TGI: 0.0455 µM
SF-539 CNS
  GI50: 0.0204 µM
  TGI: 0.0448 µM

## Cc1ccc(NS(=O)(=O)c2ccc(-c3cnc(C4CC4)o3)cc2)cc1
HCT-116 colon
  GI50: 2.49 µM
  TGI: 15.2 µM
NCI-H23 lung
  GI50: 4.1 µM
  TGI: 17.9 µM
HCT-15 colon
  GI50: 1.48 µM
  TGI: 13.1 µM
K-562 leukemia
  GI50: 0.519 µM
  TGI: 16.3 µM
HS 578T breast
  GI50: 2.71 µM
  TGI: 13.5 µM
MDA-MB-435
  GI50: 0.879 µM
  TGI: 3.94 µM
U251 CNS
  GI50: 4.18 µM
  TGI: 17.5 µM
CCRF-CEM leukemia
  GI50: 3.31 µM
  TGI: 34.6 µM
COLO 205 colon
  GI50: 3.64 µM
  TGI: 16.1 µM
SF-539 CNS
  GI50: 3.32 µM
  TGI: 13 µM

## C=CC1CC12C(=O)C1OC2(C)C2C(=O)c3ccccc3C(=O)C12 (stereo unspecified)
HCT-116 colon
  GI50: > 100 µM
  TGI: > 100 µM
NCI-H23 lung
  GI50: 39.4 µM
  TGI: > 59.8 µM
HCT-15 colon
  GI50: 41.9 µM
  TGI: > 100 µM
K-562 leukemia
  GI50: 2.3 µM
  TGI: 6.94 µM
HS 578T breast
  GI50: > 57.4 µM
  TGI: 98.2 µM
MDA-MB-435
  GI50: > 40.1 µM
  TGI: > 54.4 µM
U251 CNS
  GI50: 38.7 µM
  TGI: > 100 µM
CCRF-CEM leukemia
  GI50: 39.2 µM
  TGI: > 93.9 µM
COLO 205 colon
  GI50: > 100 µM
  TGI: > 100 µM
SF-539 CNS
  GI50: > 82 µM
  TGI: > 100 µM

## Cn1ncc2cc(-c3cnc(N)c(Cl)c3N3CCC4(CCNC4=O)CC3)ccc21
HCT-116 colon
  GI50: 37.4 µM
  TGI: > 100 µM
NCI-H23 lung
  GI50: 46.7 µM
  TGI: > 100 µM
HCT-15 colon
  GI50: 22.7 µM
  TGI: > 100 µM
K-562 leukemia
  GI50: 45.5 µM
  TGI: > 100 µM
HS 578T breast
  GI50: 19.8 µM
  TGI: 89.5 µM
MDA-MB-435
  GI50: 45.4 µM
  TGI: > 100 µM
U251 CNS
  GI50: 43.7 µM
  TGI: > 100 µM
CCRF-CEM leukemia
  GI50: 36.9 µM
  TGI: > 100 µM
COLO 205 colon
  GI50: 11.9 µM
  TGI: > 100 µM
SF-539 CNS
  GI50: 14.1 µM
  TGI: > 100 µM
